Data reported in the supplement of paper PMC6045584.
± gives the standard deviation of the averaged measurements.

How the values were obtained:
AFIMOXIFENE = compound: CC/C(=C(\c1ccc(O)cc1)c1ccc(OCCN(C)C)cc1)c1ccccc1 [AFIMOXIFENE]; test: surviving fraction relative to DMSO-only wells; higher = less growth inhibition; conditions: exposure time: 5 days
Procedure, shortened: (§1)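 Viability values are CellTiter-Glo luminescence readings, given as surviving fraction against the median of DMSO-only wells. The readings were taken after 10 minutes at room temperature, following five days of continuous exposure to inhibitors at 0.5, 1, 5, 10, 50, 100, 500 and 1000 nM that began 24 hours after log-phase tumour cell lines were seeded at 250–500 cells per well in 384-well plates. Every line was screened three times and kept only if replicate Pearson r >0.7 and median Z' >0.3.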

[1] = compound: C[C@@H]1CN(CC(=O)Nc2ccc3c(c2)Cc2cccc(-c4cc(=O)cc(N5CCOCC5)o4)c2S3)C[C@H](C)O1; test: as above; conditions: exposure time: 5 days
Procedure, shortened: as §1

Row | Test System | surviving fraction (AFIMOXIFENE; 0.5 nM) | surviving fraction (AFIMOXIFENE; 1 nM) | surviving fraction (AFIMOXIFENE; 5 nM) | surviving fraction (AFIMOXIFENE; 10 nM) | surviving fraction (AFIMOXIFENE; 50 nM) | surviving fraction (AFIMOXIFENE; 100 nM) | surviving fraction (AFIMOXIFENE; 500 nM) | surviving fraction (AFIMOXIFENE; 1000 nM) | surviving fraction ([1]; 0.5 nM) | surviving fraction ([1]; 1 nM) | surviving fraction ([1]; 5 nM) | surviving fraction ([1]; 10 nM) | surviving fraction ([1]; 50 nM) | surviving fraction ([1]; 100 nM) | surviving fraction ([1]; 500 nM) | surviving fraction ([1]; 1000 nM)
1 | DU4475 BREAST | 0.958 ± 0.1 | 0.963 ± 0.1 | 0.964 ± 0.053 | 0.903 ± 0.057 | 0.825 ± 0.017 | 0.717 ± 0.031 | 0.872 ± 0.17 | 0.651 ± 0.11 | 1.12 ± 0.23 | 1.08 ± 0.011 | 0.951 ± 0.13 | 1.18 ± 0.12 | 0.794 ± 0.22 | 1.12 ± 0.36 | 1.31 ± 0.55 | 1.05 ± 0.23
2 | MHM BONE | 1.02 ± 0.021 | 1.03 ± 0.05 | 1.09 ± 0.049 | 1.07 ± 0.033 | 1.06 ± 0.025 | 1.06 ± 0.027 | 1.01 ± 0.022 | 1.02 ± 0.028 | 1.03 ± 0.024 | 1.01 ± 0.055 | 1.05 ± 0.012 | 1.05 ± 0.021 | 1.08 ± 0.0062 | 1.1 ± 0.018 | 1.08 ± 0.024 | 1.07 ± 0.032
3 | HT1080 SOFT TISSUE | 1.07 ± 0.035 | 1.08 ± 0.018 | 1.08 ± 0.037 | 1.04 ± 0.018 | 1.01 ± 0.039 | 1.04 ± 0.023 | 1.07 ± 0.042 | 1.06 ± 0.035 | 1.01 ± 0.026 | 1.04 ± 0.027 | 1.01 ± 0.04 | 1.02 ± 0.022 | 0.987 ± 0.054 | 1.01 ± 0.051 | 0.962 ± 0.016 | 0.846 ± 0.029
4 | MDAMB453 BREAST | 1.09 ± 0.098 | 1.07 ± 0.07 | 1.11 ± 0.066 | 1.17 ± 0.16 | 1.1 ± 0.068 | 1.07 ± 0.029 | 1.07 ± 0.039 | 1.02 ± 0.026 | 1.02 ± 0.027 | 0.937 ± 0.054 | 0.994 ± 0.023 | 0.966 ± 0.035 | 0.937 ± 0.023 | 0.897 ± 0.046 | 0.9723 ± 0.0063 | 0.988 ± 0.039
5 | NOS1 BONE | 1.05 ± 0.094 | 1.16 ± 0.28 | 1.18 ± 0.08 | 1.27 ± 0.12 | 1.4 ± 0.15 | 1.21 ± 0.076 | 1.08 ± 0.072 | 0.973 ± 0.19 | 1.05 ± 0.15 | 1.07 ± 0.1 | 1.12 ± 0.13 | 1.23 ± 0.13 | 1.047 ± 0.007 | 1.12 ± 0.15 | 0.818 ± 0.029 | 0.661 ± 0.057
6 | HOS BONE | 1.02 ± 0.013 | 1.03 ± 0.016 | 1.06 ± 0.012 | 1.03 ± 0.013 | 1.12 ± 0.014 | 1.08 ± 0.031 | 1.05 ± 0.024 | 0.974 ± 0.0061 | 1.03 ± 0.041 | 1.02 ± 0.032 | 1.06 ± 0.027 | 1.06 ± 0.05 | 1.02 ± 0.039 | 1.01 ± 0.022 | 0.988 ± 0.044 | 0.901 ± 0.048
7 | CAL120 BREAST | 1 ± 0.031 | 0.972 ± 0.017 | 1.02 ± 0.074 | 1 ± 0.044 | 1.04 ± 0.041 | 0.994 ± 0.045 | 0.999 ± 0.031 | 0.948 ± 0.027 | 1.01 ± 0.029 | 1.02 ± 0.013 | 1.03 ± 0.02 | 1.04 ± 0.011 | 1.02 ± 0.022 | 1 ± 0.015 | 0.946 ± 0.046 | 0.87 ± 0.018
8 | MDAMB134 BREAST | 1.32 ± 0.15 | 1.06 ± 0.073 | 1.05 ± 0.011 | 0.975 ± 0.088 | 1.16 ± 0.074 | 0.932 ± 0.037 | 0.887 ± 0.095 | 0.908 ± 0.089 | 1.04 ± 0.082 | 0.967 ± 0.073 | 0.955 ± 0.11 | 0.926 ± 0.04 | 0.678 ± 0.16 | 0.714 ± 0.052 | 0.7305 ± 0.0021 | 0.63 ± 0.049
9 | LNCAP PROSTATE | 1.08 ± 0.041 | 0.942 ± 0.1 | 1.04 ± 0.063 | 1 ± 0.098 | 1.06 ± 0.061 | 1.04 ± 0.087 | 1.02 ± 0.08 | 0.983 ± 0.088 | 1.08 ± 0.12 | 1.12 ± 0.15 | 1.11 ± 0.11 | 1.12 ± 0.16 | 1.4 ± 0.029 | 1.43 ± 0.095 | 1.4 ± 0.11 | 1.21 ± 0.15
10 | LM7 BONE | 1.02 ± 0.12 | 1.07 ± 0.039 | 1.06 ± 0.063 | 1.09 ± 0.075 | 1.15 ± 0.092 | 1.09 ± 0.039 | 1.03 ± 0.016 | 0.914 ± 0.058 | 0.909 ± 0.046 | 0.946 ± 0.031 | 0.94 ± 0.048 | 1.09 ± 0.064 | 0.947 ± 0.052 | 0.896 ± 0.033 | 0.798 ± 0.063 | 0.78 ± 0.097
11 | SG28 HEADNECK | 1.208 ± 0.0021 | 1.04 ± 0.057 | 1.1 ± 0.15 | 0.965 ± 0.1 | 1.14 ± 0.1 | 0.985 ± 0.04 | 1.12 ± 0.04 | 1.05 ± 0.088 | 1.07 ± 0.081 | 1.11 ± 0.13 | 1.04 ± 0.093 | 0.986 ± 0.033 | 0.9 ± 0.054 | 0.915 ± 0.047 | 0.9 ± 0.1 | 0.87 ± 0.11
12 | CME SYNOVIAL | 1.26 ± 0.1 | 1.31 ± 0.15 | 1.42 ± 0.13 | 1.46 ± 0.13 | 1.41 ± 0.13 | 1.43 ± 0.1 | 1.28 ± 0.085 | 1.4 ± 0.053 | 1.35 ± 0.097 | 1.44 ± 0.15 | 1.25 ± 0.042 | 1.28 ± 0.13 | 1.11 ± 0.085 | 1.02 ± 0.054 | 0.689 ± 0.11 | 0.388 ± 0.014
13 | MDAMB361 BREAST | 0.875 ± 0.038 | 0.832 ± 0.096 | 0.756 ± 0.061 | 0.815 ± 0.11 | 0.854 ± 0.081 | 0.856 ± 0.037 | 1.09 ± 0.078 | 0.782 ± 0.013 | 0.778 ± 0.042 | 0.885 ± 0.074 | 0.776 ± 0.078 | 0.756 ± 0.083 | 0.591 ± 0.036 | 0.765 ± 0.056 | 0.548 ± 0.045 | 0.529 ± 0.071
14 | HCC202 BREAST | 1.15 ± 0.4 | 1.2 ± 0.061 | 1.53 ± 0.67 | 1.19 ± 0.14 | 1.03 ± 0.083 | 1.17 ± 0.17 | 0.881 ± 0.29 | 1.13 ± 0.51 | 1.01 ± 0.17 | 0.911 ± 0.089 | 0.845 ± 0.24 | 1.11 ± 0.26 | 0.84 ± 0.11 | 0.946 ± 0.25 | 0.845 ± 0.18 | 0.838 ± 0.28
15 | MCF7 BREAST | 1.02 ± 0.045 | 0.976 ± 0.045 | 0.917 ± 0.036 | 0.928 ± 0.045 | 0.877 ± 0.035 | 0.857 ± 0.037 | 0.834 ± 0.046 | 0.775 ± 0.012 | 0.946 ± 0.053 | 0.874 ± 0.035 | 0.902 ± 0.033 | 0.888 ± 0.012 | 0.99 ± 0.058 | 0.955 ± 0.03 | 0.933 ± 0.019 | 1 ± 0.06
16 | CAL72 BONE | 1.1 ± 0.045 | 1.08 ± 0.069 | 1.11 ± 0.037 | 1.12 ± 0.034 | 1.14 ± 0.082 | 1.13 ± 0.07 | 0.967 ± 0.17 | 0.832 ± 0.21 | 1.01 ± 0.015 | 1.06 ± 0.03 | 1.03 ± 0.011 | 1.03 ± 0.021 | 0.955 ± 0.021 | 0.97 ± 0.0097 | 0.897 ± 0.026 | 0.811 ± 0.026
17 | HU09 BONE | 1 ± 0.069 | 0.969 ± 0.057 | 1.02 ± 0.077 | 1.21 ± 0.1 | 1.13 ± 0.08 | 1.04 ± 0.065 | 0.971 ± 0.083 | 0.945 ± 0.038 | 0.994 ± 0.096 | 0.996 ± 0.1 | 1.13 ± 0.061 | 1.1 ± 0.14 | 1.03 ± 0.12 | 1.42 ± 0.58 | 0.778 ± 0.065 | 0.763 ± 0.14
18 | JIMT1 BREAST | 1.01 ± 0.045 | 0.972 ± 0.026 | 1 ± 0.032 | 0.994 ± 0.048 | 1.08 ± 0.065 | 1.05 ± 0.066 | 1.04 ± 0.08 | 0.939 ± 0.024 | 0.91 ± 0.034 | 0.924 ± 0.022 | 0.936 ± 0.02 | 0.952 ± 0.031 | 0.956 ± 0.013 | 1 ± 0.038 | 0.971 ± 0.03 | 0.887 ± 0.024
19 | SG31 HEADNECK | 1.4 ± 0.15 | 1.21 ± 0.07 | 1.18 ± 0.16 | 1.06 ± 0.095 | 1.07 ± 0.15 | 1.09 ± 0.051 | 1.08 ± 0.099 | – | 0.946 ± 0.076 | 0.916 ± 0.1 | 1.06 ± 0.17 | 0.953 ± 0.07 | 0.971 ± 0.12 | 0.964 ± 0.09 | 1.08 ± 0.087 | 1.06 ± 0.098
20 | JURKAT HAEMATOPOIETIC AND LYMPHOID TISSUE | 1.06 ± 0.023 | 1.03 ± 0.026 | 1.03 ± 0.021 | 1.04 ± 0.015 | 0.953 ± 0.024 | 0.935 ± 0.061 | 0.991 ± 0.011 | 1.03 ± 0.025 | 1.1 ± 0.013 | 1.123 ± 0.0098 | 1.08 ± 0.016 | 1.09 ± 0.026 | 1.05 ± 0.026 | 1.03 ± 0.029 | 1.01 ± 0.018 | 0.96 ± 0.029
